The source of these data is patent US20020115661A1, “Method for treating chronic obstructive pulmonary disease” (priority 2000, published 2002).

Molecules are shown by their SMILES.

The target in one data set is T1, human ETA receptors (Homo sapiens, UniProt P25101).
T1 construct: expressed in transfected cells; host or cells: Ltk- cells (mouse fibroblast, thymidine kinase deficient)
T1 sequence (P25101 21-427): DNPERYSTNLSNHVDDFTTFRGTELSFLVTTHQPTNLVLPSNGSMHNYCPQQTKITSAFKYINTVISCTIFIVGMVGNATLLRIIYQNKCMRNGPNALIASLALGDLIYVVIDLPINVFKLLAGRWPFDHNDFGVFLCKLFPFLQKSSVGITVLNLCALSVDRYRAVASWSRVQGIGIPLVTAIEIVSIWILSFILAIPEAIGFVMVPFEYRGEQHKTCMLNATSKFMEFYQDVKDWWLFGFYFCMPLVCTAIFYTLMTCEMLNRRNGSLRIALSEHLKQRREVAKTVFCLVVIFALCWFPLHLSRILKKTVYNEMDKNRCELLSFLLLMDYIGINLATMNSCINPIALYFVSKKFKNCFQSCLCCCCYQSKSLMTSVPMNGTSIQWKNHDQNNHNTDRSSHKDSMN
The experiment in a line: [125I]ET-1 binding to recombinant human ETA receptors (Ltk- cell membranes). The conditions noted are these: for IC50: Table 1 comparison with known endothelin antagonists, read-out: Receptor Inhibition, Human ETA; for ETB/ETA selectivity ratio: human ETB / human ETA receptor inhibition.

The target in another data set is T2, human ETB receptors (Homo sapiens, UniProt P24530).
T2 construct: expressed in transfected cells; host or cells: CHO cells
T2 sequence (P24530 27-442): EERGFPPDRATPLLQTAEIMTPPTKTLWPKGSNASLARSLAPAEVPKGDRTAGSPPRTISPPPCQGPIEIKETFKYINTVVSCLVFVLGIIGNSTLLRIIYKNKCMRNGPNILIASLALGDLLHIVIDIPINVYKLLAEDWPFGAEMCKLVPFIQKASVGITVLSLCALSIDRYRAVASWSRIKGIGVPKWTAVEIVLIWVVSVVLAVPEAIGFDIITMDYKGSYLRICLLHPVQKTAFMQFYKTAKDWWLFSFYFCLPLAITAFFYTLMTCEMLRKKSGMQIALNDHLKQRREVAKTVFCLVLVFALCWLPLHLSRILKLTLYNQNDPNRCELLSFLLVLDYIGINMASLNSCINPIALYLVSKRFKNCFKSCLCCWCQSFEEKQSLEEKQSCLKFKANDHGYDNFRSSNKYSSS
Description: [125I]ET-3 binding to recombinant human ETB receptors (CHO cell membranes). The following applies: Table 1 comparison with known endothelin antagonists; read-out: Receptor Inhibition, Human ETB.

The nature of a further data set: clinical. The following applies: human, plasma, oral, 2 mg.

`CCCOc1ccc2c(c1)[C@@H](c1ccc(OC)cc1OCCO)[C@H](C(=O)O)[C@H]2c1ccc2c(c1)OCO2` [Enrasentan]: on human ETA receptors, the IC50 was 0.1 nM and the ETB/ETA selectivity ratio was 1110. For the same compound, the IC50 at human ETB receptors was found to be 111 nM.
For `COc1cc(OC)nc(O[C@H](C(=O)O)C(OC)(c2ccccc2)c2ccccc2)n1` [Darusentan] the same measures were 1.4 nM, 131 and 184 nM.
In “clinical”, `Cc1ncc2n1-c1ccc(Cl)cc1C(c1ccccc1F)=NC2` [midazolam] displayed an AUC(0-t) of 15.2 ng·h/mL and a Cmax of 7.65 ng/mL.
